The record followed here is US20050227961A1, “Compositions and methods for treatment of neuropathic pain, fibromyalgia and chronic fatigue syndrome” (Vela Pharmaceuticals, Inc., priority 2004, published 2005).

In this test the test system is lesioned hindpaw of rats suffering from neuropathic pain. Kind of test: Neuropathic pain, thermal stimulation model in the rat (Chung spinal nerve ligature), paw withdrawal latency. As to conditions: for Paw Withdrawal Latent (seconds) for Lesioned Paw, mean ± SEM / Paw withdrawal latency, % change compared with vehicle control: thermal stimulation.

The structures appear in SMILES notation.

As to `CN1CC[C@]23c4c5ccc(O)c4O[C@H]2[C@@H](O)C=C[C@H]3[C@H]1C5` [Morphine], the “Paw Withdrawal Latent (seconds) for Lesioned Paw, mean ± SEM” value (“Paw Withdrawal Latent … mean ± SEM” for short) (128 mg/kg p.o., at 30 min) amounted to 23.5 ± 6.4 s; the “Paw Withdrawal Latent … mean ± SEM” value (128 mg/kg p.o., at 1 h) is 40.5 ± 3.0 s; the “Paw Withdrawal Latent … mean ± SEM” value (128 mg/kg p.o., at 2 h) is 16.7 ± 6.0 s; the “Paw Withdrawal Latent … mean ± SEM” value (128 mg/kg p.o., at 4 h) worked out at 21.7 ± 5.7 s. In addition, the “Paw withdrawal latency, % change compared with vehicle control” value (shortened to “Paw withdrawal latency, % change”) is “+104%” (128 mg/kg p.o., at 30 min); “+185%” (128 mg/kg p.o., at 1 h); −7% (128 mg/kg p.o., at 2 h); “+10%” (128 mg/kg p.o., at 4 h).

For the molecule `CN1c2ccccc2C(NCCCCCCC(=O)O)c2ccc(Cl)cc2S1(=O)=O` (stereo not drawn) [Tianeptine, 7-[(3-chloro-6,11-dihydro-6-methyl-dibenzo[c,f][1,2]thiazepin-11-yl)amino]heptanoic acid S,S-dioxide], the “Paw Withdrawal Latent … mean ± SEM” value (3 mg/kg p.o., at 30 min) is 12.7 ± 4.9 s; the “Paw Withdrawal Latent … mean ± SEM” value (3 mg/kg p.o., at 1 h) was found to be 20.3 ± 5.3 s; the “Paw Withdrawal Latent … mean ± SEM” value (3 mg/kg p.o., at 2 h) came out at 20.6 ± 6.3 s; the “Paw Withdrawal Latent … mean ± SEM” value (3 mg/kg p.o., at 4 h) is 13.8 ± 4.4 s; the “Paw Withdrawal Latent … mean ± SEM” value (10 mg/kg p.o., at 30 min) came to 19.2 ± 6.0 s; the “Paw Withdrawal Latent … mean ± SEM” value (10 mg/kg p.o., at 1 h) was 15.1 ± 4.5 s. For the same molecule, the “Paw Withdrawal Latent … mean ± SEM” value is 16.1 ± 5.1 s (10 mg/kg p.o., at 2 h); 26.1 ± 5.4 s (10 mg/kg p.o., at 4 h); 33.3 ± 5.5 s (30 mg/kg p.o., at 30 min); 29.0 ± 7.3 s (30 mg/kg p.o., at 1 h); 16.9 ± 5.0 s (30 mg/kg p.o., at 2 h); 19.3 ± 5.8 s (30 mg/kg p.o., at 4 h). Also, the “Paw withdrawal latency, % change” value (3 mg/kg p.o., at 30 min) is on record as “+10%”; the “Paw withdrawal latency, % change” value (3 mg/kg p.o., at 1 h) is “+43%”; the “Paw withdrawal latency, % change” value (3 mg/kg p.o., at 2 h) is on record as “+15%”; the “Paw withdrawal latency, % change” value (3 mg/kg p.o., at 4 h) was −30%; the “Paw withdrawal latency, % change” value (10 mg/kg p.o., at 30 min) is recorded as “+67%”; the “Paw withdrawal latency, % change” value (10 mg/kg p.o., at 1 h) was “+6%”. In addition, the “Paw withdrawal latency, % change” value reads like this: (10 mg/kg p.o., at 2 h) −10%; (10 mg/kg p.o., at 4 h) “+32%”; (30 mg/kg p.o., at 30 min) “+190%”; (30 mg/kg p.o., at 1 h) “+104%”; (30 mg/kg p.o., at 2 h) −6%; (30 mg/kg p.o., at 4 h) −2%. Further, under “30 mg/kg, at 30 minutes”, the “paw withdrawal latency after thermal stimulation in the lesioned paw (result in words)” value was “significant increase”.
